Test [1] concerns P. falciparum. Nature of the test: Overnight P. falciparum infection assay with C terminal G protein peptides, new ring stage infection scored by Giemsa staining. Type of test: cell-based, Plasmodium falciparum. The note with it: for effect on erythrocytic infection / new ring formation (words): 500 μM peptide in culture; for % Inhibition of Infection: 500 uM peptide, overnight, compared to mock treated cultures, standard error 10%. The procedure:
FIG. 2. Effects of FITC-Gs peptide and its FITC-Gs-scrambled peptide on erythrocytic infection. Assays containing 500 μM of indicated peptides, their FITC-derived counterparts or solvent alone were added to a standard infection assay (see Table 1). FIG. 3. Cells taken from a standard infection assay incubated with 500 μM FITC-Gs peptide (A) or FITC-Gs scrambled peptide (B) were fixed in formaldehyde, and without permeabilization subjected to an indirect immunofluorescence assay with anti-MSP1 antibody (red, to detect extracellular parasites) and stained with DAPI (blue, to visualize nuclei). Samples were imaged by digitized fluorescence microscopy (FITC signal is green). Infection assays were set up using synchronized cultures of P. falciparum with a starting parasitemia of 6% schizonts. Cultures were incubated with 500 uM of the indicated peptides (Gs, Gs-scrambled, Gq or Gi-reversed) or mock treated (with no peptide) overnight and subsequently scored for new ring stage infection by Giemsa staining of thin blood smears. Infection is shown compared to that of mock treated cultures (containing no peptide).

Test [2] has as its system P. falciparum (strain 3D7). Nature of the test: In vitro erythrocytic infection assay with Gs receptor agonists/antagonists, new ring stage infection after 4-6 h. The class given is cell-based, Plasmodium falciparum. The note with it: for blocking the stimulation of infection by P. falciparum in vitro: 10 μM isoproterenol or antagonist, 4-6 hours, FIG. 10.
Description: Effects of β-adrenergic receptor agonist (isoproterenol) or antagonist (propranolol) on erythrocyte infection by P. falciparum. Cultures containing 2×10^8 red cells and 2.5×10^6 synchronized segmenters were incubated in 1 ml of 10% medium (10% human serum with RPMI) with the indicated agonist, antagonist, agonist+antagonist, or mock treated (solvent alone: 1 μl) for 6 h.
Effects of adenosine receptor agonist (NECA) and antagonist (8-SPT) on infection of erythrocytes by P. falciparum. Cultures were set up as described in FIG. 5, indicated concentrations of NECA, 8-SPT, both or solvent alone were added and infection was scored after 6 h as described.
Effects of (β-adrenergic and adenosine receptor) agonists and antagonists singly and in combination on in vitro erythrocytic infection by P. falciparum. In vitro infection assays were done with synchronized cultures of P. falciparum (strain 3D7) using standard culture conditions (K. Haldar, M. A. J. Ferguson, G. A. M. Cross, J Biol Chem 260, 4969 (1985)). A starting parasitemia of 2.5% schizonts (44-48 h in development) in 20 μl of red blood cells with 1 ml of 10% human serum in RPMI1640 was used. The cultures were incubated for 4-6 hours in the presence of Gαs protein receptor agonist or antagonist, or vehicle control. All detectable schizonts ruptured, and new ring stage infection was scored by Giemsa staining of thin blood smears.
In vitro effect of various β-adrenergic antagonists on inhibition of P. falciparum infection in red blood cells treated with isoproterenol. In vitro infection assays were done with synchronized cultures of P. falciparum (strain 3D7) using standard culture conditions (K. Haldar, M. A. J. Ferguson, G. A. M. Cross, J Biol Chem 260, 4969 (1985)). A starting parasitemia of 2.5% schizonts (44-48 h in development) in 20 μl of red blood cells with 1 ml of 10% human serum in RPMI1640 was used. The cultures were incubated for 4-6 hours in the presence of 10 μM beta-adrenergic receptor agonists or antagonists, or vehicle control. All detectable schizonts ruptured, and new ring stage infection was scored by Giemsa staining of thin blood smears.
In vitro infection assays were done with synchronized cultures of P. falciparum (strain 3D7) using standard culture conditions. A starting parasitemia of 2.5% schizonts (44-48 h in development) in 20 μl of red blood cells with 1 ml of 10% human serum in RPMI1640 was used. The cultures were incubated for 4-6 hours in the presence of 10 μM isoproterenol or antagonist, or vehicle control. All detectable schizonts ruptured, and new ring stage infection was scored by Giemsa staining of thin blood smears.
The next test concerns P. berghei. Nature of the test: Standard 4 day Peters assay, P. berghei in mice, drug intraperitoneally. Type of test: in vivo. The note with it: for inhibition of parasitemia / P. berghei infection in vivo: mice, day 4 parasitemia. The procedure:
FIG. 11. […] In vivo mouse experiments were done with P. berghei using a standard 4 day Peters assay (W. Peters, B. L. Robinson, Ann Trop Med Parasitol 78, 561 (1984)). P. berghei and the racemic form of propranolol were administered intraperitoneally; five mice were used per data point. In IC50 studies, 5 data points were taken. Mice were given 5×10^7 parasites on day 0, and indicated concentrations of drug twice a day on days 0-3. Tail bleeds were carried out on day 4 to ascertain parasitemia, after which the animals were sacrificed.
FIG. 12. […] In vivo mouse experiments were done with P. berghei using a standard 4 day Peters assay (W. Peters, B. L. Robinson, Ann Trop Med Parasitol 78, 561 (1984)). P. berghei and ICI 181,551 were administered intraperitoneally; five mice were used per data point. In IC50 studies, 5 data points were taken. Mice were given 5×10^7 parasites on day 0, and indicated concentrations of drug twice a day on days 0-3. Tail bleeds were carried out on day 4 to ascertain parasitemia, after which the animals were sacrificed.
In vivo mouse experiments were done with P. berghei using a standard 4 day Peters assay (W. Peters, B. L. Robinson, Ann Trop Med Parasitol 78, 561 (1984)). P. berghei and β2-adrenergic receptor antagonists were administered intraperitoneally; five mice were used per data point. In IC50 studies, 5 data points were taken. Mice were given 5×10^7 parasites on day 0, and indicated concentrations of drug twice a day on days 0-3. Tail bleeds were carried out on day 4 to ascertain parasitemia, after which the animals were sacrificed.
In vivo mouse experiments were done with P. berghei using a standard 4 day Peters assay. P. berghei and ICI 181,551 were administered intraperitoneally; five mice were used per data point. In IC50 studies, 5 data points were taken. Mice were given 5×10^7 parasites on day 0, and indicated concentrations of drug twice a day on days 0-3. Tail bleeds were carried out on day 4 to ascertain parasitemia, after which the animals were sacrificed.
In vivo mouse experiments were done with P. berghei using a standard 4 day Peters assay. P. berghei and the indicated antagonists were administered intraperitoneally; five mice were used per data point. Mice were given 5×10^7 parasites on day 0, and indicated concentrations of drug twice a day on days 0-3. Tail bleeds were carried out on day 4 to ascertain parasitemia, after which the animals were sacrificed.

Test [3] concerns P. falciparum. In words: Preincubation (4 h) of red cells or schizonts with Gs peptide, wash, then overnight infection assay. Type of test: cell-based, Plasmodium falciparum. The note with it: 500 μM, 4 h preincubation of red cells or late stage segmenters/schizonts, FIG. 1; listed as Gs peptide. As to the method:
FIG. 1. Effects of preincubating (for 4 h) red cells or schizonts with Gs peptide on malarial infection. Uninfected red cells or schizonts were resuspended at 2×10^8 cells/ml in RPMI1640 and incubated with 500 μM Gs peptide or mock treated for 4 h at 37° C. The cells were subsequently recovered by centrifugation and washing in peptide-free medium. Washed cells were then subjected to an overnight infection assay (using 4% schizonts to infect the culture) in the absence of peptides.

The test system of test [4] is P. falciparum. In words: Dose dependent effect of Gs peptide on ring-infected P. falciparum cultures (development to trophozoites and next generation rings). The class given is cell-based, Plasmodium falciparum. The note with it: for effect on parasite growth in culture / new ring formation: extracellular 100-500 μM, Tables I and II. As to the method:
Table II illustrates the dose dependent effect of Gs peptide on inhibition of P. falciparum infection. In this study, ring-infected cultures at 1% parasitemia were incubated with the indicated concentrations of Gs peptides under standard culture conditions and monitored for development to the subsequent trophozoite stage as well as the next generation of ring stage parasites. Parasitemias were detected by Giemsa staining of thin blood smears. Standard error: 10%.

For test [5], the target named is host Gs coupled receptors of the red cell. In words: cell-based or functional assay.

The source of these data is patent US20040220198A1, “Methods for treating malaria by modulation of G protein function” (priority 2002, published 2004).

Entries after “also recorded” stand apart in the source; their conditions may differ. Ends that are not written are not given here.

With “LQLNLKEYNLV (SEQ ID NO: 3) (synthetic C terminal peptide of Gq)”, in the test on P. falciparum [1], the “effect on erythrocytic infection / new ring formation (words)” value is on record as “little effect on plasmodial growth; also recorded: no significant effect on infection” and the “% Inhibition of Infection” value is 20%.

Regarding `COc1ccc(OC)c(C(O)C(C)NC(C)(C)C)c1` (centres unmarked) [butoxamine], the “blocking the stimulation of infection by P. falciparum in vitro” value in test [2] is on record as “lower inhibitory effect”.

Take `CC(C)NC[C@@H](O)COc1cccc2ccccc12` (single isomer, unassigned) [inactive isomer of propranolol]: the “P. falciparum growth in culture” value in test [2] was “no effect”. Further, the “inhibition of parasitemia / P. berghei infection in vivo” value with P. berghei is on record as “no effect”.

Regarding `Cc1ccc(OCC(O)C(C)NC(C)C)c2c1CCC2` (centres unmarked) [ICI 181,551], in the test with P. berghei, the “inhibition of parasitemia / P. berghei infection in vivo” value is reported as “effective at inhibiting parasitemia in vivo”.

`CC(C)NCC(O)COc1cccc2ccccc12` (racemic) [racemic propranolol]: in test [2], the “blocking the stimulation of infection by P. falciparum in vitro” value is recorded as “inhibit agonist-stimulated infection of P. falciparum in vitro”. Moreover, the IC90 with P. berghei (P. berghei infections in mice, twice a day days 0-3, FIG. 11) is 85 mg/kg/day. Also, the “inhibition of parasitemia / P. berghei infection in vivo” value in the test with P. berghei was “block P. berghei infections in mice”.

As for “QRMHLRQYELL (SEQ ID NO:1) (also: acetylated) [Gs]”, the “effect on erythrocytic infection / new ring formation (words)” value in the test on P. falciparum [1] was “marked inhibition of new rings; also recorded: significantly reduced erythrocytic infection”. The “% Inhibition of Infection” value in the test with P. falciparum [1] amounted to 87%. Further, the “effect of preincubation with peptide on infection” value in the test with P. falciparum [3] was “no detrimental effect on infection; also recorded: failed to block infection”. Also, the “% Ring” value is reported as 1.0% with P. falciparum [4] (Day 1, 5 μM Gs Peptide); 1.0% in the test on P. falciparum [4] (Day 1, 20 μM Gs Peptide); 1.0% with P. falciparum [4] (Day 1, 50 μM Gs Peptide); 1.0% in the test on P. falciparum [4] (Day 1, 100 μM Gs Peptide); 1.0% in the test on P. falciparum [4] (Day 1, 200 μM Gs Peptide); 1.0% in the test with P. falciparum [4] (Day 1, 500 μM Gs Peptide). For the same compound, the “% Ring” value in the test on P. falciparum [4] (Day 3, 5 μM Gs Peptide) is reported as 3.8%; in the test with P. falciparum [4] (Day 3, 20 μM Gs Peptide), 2.7%; in the test with P. falciparum [4] (Day 3, 50 μM Gs Peptide), 1.9%; with P. falciparum [4] (Day 3, 100 μM Gs Peptide) it was 1.4%; in the test with P. falciparum [4] (Day 3, 200 μM Gs Peptide), 0.6%; with P. falciparum [4] (Day 3, 500 μM Gs Peptide), 0.4%. For the same compound, the “% Troph” value in the test with P. falciparum [4] (Day 2, 5 μM Gs Peptide) is reported as 0.9%; with P. falciparum [4] (Day 2, 20 μM Gs Peptide) it was 1.0%; with P. falciparum [4] (Day 2, 50 μM Gs Peptide), 0.9%; in the test with P. falciparum [4] (Day 2, 100 μM Gs Peptide), 0.8%; in the test on P. falciparum [4] (Day 2, 200 μM Gs Peptide), 1.0%; in the test with P. falciparum [4] (Day 2, 500 μM Gs Peptide), 0.9%. Further, the “% Troph” value in the test on P. falciparum [4] (Day 3, 5 μM Gs Peptide) is 0.6%; in the test with P. falciparum [4] (Day 3, 20 μM Gs Peptide), 0.6%; with P. falciparum [4] (Day 3, 50 μM Gs Peptide), 0.3%; with P. falciparum [4] (Day 3, 100 μM Gs Peptide), 0.6%; with P. falciparum [4] (Day 3, 200 μM Gs Peptide), 0.5%; in the test with P. falciparum [4] (Day 3, 500 μM Gs Peptide) it was 0.5%. For the same compound, the “effect on parasite growth in culture / new ring formation” value was “marked effect on new ring formation” with P. falciparum [4] (listed as Gs peptide) and “inhibit parasite growth in culture, in a dose dependent manner” in the test with P. falciparum [4] (listed as Gαs peptide). Moreover, the “extracellular concentrations required for significant inhibition” value with P. falciparum [4] (new ring formation) is greater than 50 µM.

For the compound `CC(C)NCC(O)COc1ccc(CC(N)=O)cc1` (centres unmarked) [altenolol, 4-[2-Hydroxy-3-[(1-methylethyl)amino]-propoxy]benzeneacetamide], the “blocking the stimulation of infection by P. falciparum in vitro” value in test [2] is listed as “almost as effective as propranolol at blocking the stimulation of infection”.

For “NGIKCLFNDKL (SEQ ID NO:4) (synthetic reverse C terminal peptide of Gri) [Gi-reverse, reverse of C terminal peptide of Gi]”, the “effect on erythrocytic infection / new ring formation (words)” value in the test with P. falciparum [1] (listed as Gi) was “no significant effect on infection”; in the test with P. falciparum [1] (listed as Gri), “little effect on plasmodial growth”. Also, the “% Inhibition of Infection” value in the test on P. falciparum [1] was found to be 6%.

As to “ELRLQHYMQLR (SEQ ID NO:2) (synthetic scrambled G s peptide Gscb1) [Gs-scrambled]”, in the test on P. falciparum [1], the “effect on erythrocytic infection / new ring formation (words)” value is listed as “does not block infection” and the “% Inhibition of Infection” value was 4%. Also, the “effect on erythrocytic infection / new ring formation (words)” value in the test with P. falciparum [1] (listed as Gscb1) is given as “virtually no effect”.

In test [5], “Gαs peptide (C terminal peptide of the heterotrimeric G protein Gs)” gave a % Inhibition of Infection (P. falciparum erythrocytic infection, 500 uM peptide, overnight) of 87%; a Day 3 % Ring (new ring stage parasitemia) at 5 µM Gs peptide; 5.2 at 0 µM of 3.8%; a Day 3 % Ring (new ring stage parasitemia) at 20 µM Gs peptide; 5.2 at 0 µM of 2.7%; a Day 3 % Ring (new ring stage parasitemia) at 50 µM Gs peptide; 5.2 at 0 µM of 1.9%. In test [5], this compound registered a Day 3 % Ring (new ring stage parasitemia) at 100 µM Gs peptide; 5.2 at 0 µM of 1.4%, a Day 3 % Ring (new ring stage parasitemia) at 200 µM Gs peptide; 5.2 at 0 µM of 0.6% and a Day 3 % Ring (new ring stage parasitemia) at 500 µM Gs peptide; 5.2 at 0 µM of 0.4%.
